Columns and labels:
Assay in all cases: relative viability (nuclei count vs DMSO), 5 days (fraction); higher = more cells survive
[1] = compound: C1CCC(CC1)N(CCNCCC2=C3C(=C(C=C2)O)NC(=O)CO3)C(=O)CCNCCC4=CC(=C(C=C4)Cl)Cl [AZ505] + COc1cccc2cc(-c3nc([C@H]4CC[C@H](C(=O)O)CC4)n4ncnc(N)c34)[nH]c12 [OSI-027] (partner 0.5 µM)
Outline: (§1)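 After 5 days of treatment, lung cancer cells in 1536-well plates were fixed and stained in a single step (final 0.05% Triton X-100, 1% formaldehyde, 1 ug/ml Hoechst) and their nuclei counted on 4× images. Treatment had been applied by pin tool the day after seeding as one drug alone or as a fixed anchor-drug dose with five library-drug doses (not always all listed) in √10 steps. Relative viability is the nuclei count of treated wells divided by that of vehicle wells, and values are medians of duplicate plates.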

[2] = compound: C1CCC(CC1)N(CCNCCC2=C3C(=C(C=C2)O)NC(=O)CO3)C(=O)CCNCCC4=CC(=C(C=C4)Cl)Cl [AZ505] + C[C@@H](Oc1cc(-c2cnn(C3CCNCC3)c2)cnc1N)c1c(Cl)ccc(F)c1Cl [Crizotinib] (partner 1 µM)
Outline: as §1

[3] = compound: Cn1c(=O)n(-c2ccc(C(C)(C)C#N)cc2)c2c3cc(-c4cnc5ccccc5c4)ccc3ncc21 [Dactolisib] + COc1cccc2cc(-c3nc([C@H]4CC[C@H](C(=O)O)CC4)n4ncnc(N)c34)[nH]c12 [OSI-027] (partner 0.5 µM)
Outline: as §1

[4] = compound: C1CCC(CC1)N(CCNCCC2=C3C(=C(C=C2)O)NC(=O)CO3)C(=O)CCNCCC4=CC(=C(C=C4)Cl)Cl [AZ505] + Nc1ncn([C@H]2C[C@H](O)[C@@H](CO)O2)c(=O)n1 [Decitabine] (partner 2 µM)
Outline: as §1

Cell Line	relative viability ([1]; first compound 0.08 µM)	relative viability ([1]; first compound 0.253 µM)	relative viability ([1]; first compound 0.8 µM)	relative viability ([1]; first compound 2.53 µM)	relative viability ([1]; first compound 8 µM)	relative viability ([2]; first compound 0.08 µM)	relative viability ([2]; first compound 0.253 µM)	relative viability ([2]; first compound 0.8 µM)	relative viability ([2]; first compound 2.53 µM)	relative viability ([2]; first compound 8 µM)	relative viability ([3]; first compound 0.002 µM)	relative viability ([3]; first compound 0.006325 µM)	relative viability ([3]; first compound 0.02 µM)	relative viability ([3]; first compound 0.06325 µM)	relative viability ([3]; first compound 0.2 µM)	relative viability ([4]; first compound 0.08 µM)	relative viability ([4]; first compound 0.253 µM)	relative viability ([4]; first compound 0.8 µM)	relative viability ([4]; first compound 2.53 µM)	relative viability ([4]; first compound 8 µM)
COR-L23	0.494	0.65	0.588	0.486	0.656	0.42	0.621	0.518	0.567	0.385	0.917	0.796	0.59	0.289	0.259	0.378	0.449	0.381	0.458	0.443
NCI-H2087	0.403	0.368	0.595	0.518	0.728	0.683	0.743	0.998	0.752	0.838	1.05	0.572	0.53	0.43	0.252	0.224	0.254	0.275	0.289	0.277
LC-2-ad	0.747	0.759	0.629	0.876	0.912	0.432	0.475	0.438	0.472	0.427	0.938	0.844	0.769	0.582	0.546	0.797	0.835	0.776	0.776	0.841
NCI-H1915	0.549	0.563	0.544	0.416	0.587	0.881	0.948	0.887	0.827	0.969	0.723	0.704	0.716	0.535	0.418	0.278	0.303	0.29	0.27	0.279
NCI-H2023	0.437	0.322	0.421	0.393	0.398	0.641	0.719	0.683	0.795	0.67	0.412	0.357	0.344	0.15	0.108	0.196	0.242	0.228	0.255	0.26
COR-L 105	0.626	0.572	0.615	0.62	0.752	0.579	0.964	0.75	0.963	0.793	0.776	0.619	0.478	0.385	0.314	0.375	0.653	0.591	0.637	0.729
RERF-LC-KJ	0.471	0.575	0.552	0.574	0.492	0.769	0.848	0.774	0.842	0.833	0.699	0.604	0.585	0.397	0.433	0.719	0.664	0.757	0.78	0.567
LXF-289	0.701	0.748	0.763	0.668	0.959	0.738	–	0.812	0.788	0.762	0.93	0.865	0.821	0.692	0.684	0.355	0.39	0.396	0.347	0.386
PC-14	0.72	0.835	0.666	0.765	0.786	0.787	0.805	0.934	0.846	0.95	0.863	0.755	0.662	0.2	0.0989	0.2	0.261	0.272	0.192	0.258
NCI-H650	0.503	0.552	0.529	0.671	0.54	0.604	0.749	0.698	0.642	0.758	0.509	0.518	0.641	0.592	0.372	0.311	0.343	0.301	0.316	0.288
NCI-H1666	0.779	0.817	0.725	0.93	0.912	0.903	1.03	0.96	0.997	0.954	1.04	0.895	0.864	0.755	0.687	0.69	0.667	0.752	0.659	0.694
NCI-H2085	0.664	0.536	0.733	0.772	0.858	1.02	0.848	0.679	0.924	0.877	0.737	0.609	0.663	0.319	0.269	0.571	0.551	0.496	0.565	0.569
NCI-H1734	0.515	0.539	0.573	0.559	0.576	0.66	0.657	0.591	0.623	0.658	0.561	0.594	0.562	0.313	0.247	0.52	0.501	0.45	0.541	0.506
NCI-H2126	0.601	0.6	0.689	0.751	0.779	0.98	1.05	0.982	1.03	1.08	0.92	0.733	0.687	0.618	0.458	0.589	0.6	0.547	0.563	0.59
EMC-BAC-2	0.358	0.38	0.392	0.385	0.372	0.791	0.911	0.698	0.735	0.761	0.395	0.439	0.405	0.346	0.296	0.938	–	0.862	0.924	0.943
NCI-H1993	0.568	0.572	0.51	0.529	0.556	0.928	0.85	0.766	1.03	0.798	0.596	0.496	0.615	0.469	0.589	0.595	0.602	0.575	0.617	0.594
